Measured values from US12304900B2, “Islet cell manufacturing compositions and methods of use” (Vertex Pharmaceuticals Incorporated, priority 2017, dated 2025).

Tested on: PGT cells (Stage 2 cells)
Test: Flow cytometry of cell constituent at Stage 4-complete after signaling factors at Stage 3
Assay type: cell-based
Source text: In the meantime, LDN193189 also promoted chromogranin A (CHGA) expression in Stage 4-complete cells.

[1] = Stage 4-complete, 0.5 μM DMH-1 alone vs no DMH-1, FIG. 6B

Row | SMILES | chromogranin A (CHGA) expression (Stage 4-complete cells, LDN193189 at Stage 3, FIG. 6A) | percentage of CDX2-positive cells (Stage 4-complete, LDN193189 at Stage 3 vs absence, FIG. 6A) | percentage of cells expressing CDX2 [1] | percentage of cells expressing CHGA [1]
1 | c1ccc2c(-c3cnn4cc(-c5ccc(N6CCNCC6)cc5)cnc34)ccnc2c1 [LDN193189, 4-[6-(4-piperazin-1-ylphenyl)pyrazolo[1,5-a]pyrimidin-β-yl]quinolone] | promoted | clearly reduced |  | 
2 | CC(C)Oc1ccc(-c2cnc3c(-c4ccnc5ccccc45)cnn3c2)cc1 [DMH-1] |  |  | reduced | increased
